Source: ChEMBL document CHEMBL4414679, “Discovery of 4,6-pyrimidinediamine derivatives as novel dual EGFR/FGFR inhibitors aimed EGFR/FGFR1-positive NSCLC” (Eur J Med Chem, 2020)
Active and inactive are the calls of the source. The rule behind the calls is not given here.

Key:
[1] = Cmax in Sprague-Dawley rat at 30 mg/kg, po measured upto 24 hrs by UPLC-MS/MS; format: ADME, organism-based; set-up: dose 30 mg/kg, route oral; settings: in vivo
[2] = biological target: Epidermal growth factor receptor (Homo sapiens, UniProt P00533); assay: Inhibition of EGF-induced EGFR phosphorylation in serum-starved human PC9 cells upto 10 uM incubated for 1 hr by Western blot analysis
[3] = species: Homo sapiens; assay: Inhibition of cell migration in gefitinib-insensitive human HCC827GR cells incubated upto 72 hrs by wound healing assay; format: functional
[4] = biological target: T1, Fibroblast growth factor receptor 1 (Homo sapiens, UniProt P11362); assay: Inhibition of N-terminal GST-tagged human FGFR1 cytoplasmic domain (398-822 AA) expressed in baculovirus using FAM-labelled peptide as substrate pre-incubated for 10 mins followed by substrate addition by mobility shift assay
Target sequence in this assay (P11362 whole entry, the tested form may be a part): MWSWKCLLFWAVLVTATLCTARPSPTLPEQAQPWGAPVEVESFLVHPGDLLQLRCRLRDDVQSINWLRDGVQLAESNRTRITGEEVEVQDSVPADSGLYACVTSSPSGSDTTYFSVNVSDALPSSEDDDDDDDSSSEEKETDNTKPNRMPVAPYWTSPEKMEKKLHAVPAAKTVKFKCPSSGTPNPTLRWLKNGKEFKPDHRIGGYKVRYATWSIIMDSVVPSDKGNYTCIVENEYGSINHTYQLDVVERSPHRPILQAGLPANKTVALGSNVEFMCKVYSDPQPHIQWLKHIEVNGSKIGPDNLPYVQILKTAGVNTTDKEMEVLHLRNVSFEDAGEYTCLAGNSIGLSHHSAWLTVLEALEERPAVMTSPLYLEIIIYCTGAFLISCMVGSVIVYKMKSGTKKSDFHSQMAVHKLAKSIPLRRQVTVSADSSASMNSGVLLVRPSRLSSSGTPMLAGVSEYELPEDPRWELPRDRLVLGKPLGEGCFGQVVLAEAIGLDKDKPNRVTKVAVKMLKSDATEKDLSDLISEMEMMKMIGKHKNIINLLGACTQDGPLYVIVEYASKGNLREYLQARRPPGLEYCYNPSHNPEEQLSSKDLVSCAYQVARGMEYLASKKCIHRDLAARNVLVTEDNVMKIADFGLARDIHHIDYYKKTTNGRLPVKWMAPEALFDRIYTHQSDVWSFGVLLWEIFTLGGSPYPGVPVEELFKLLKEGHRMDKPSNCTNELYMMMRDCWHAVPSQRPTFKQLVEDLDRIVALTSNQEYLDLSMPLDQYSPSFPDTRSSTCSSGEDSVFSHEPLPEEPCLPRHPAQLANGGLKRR

[5] = biological target: T1, Fibroblast growth factor receptor 1; assay: Inhibition of FGFR1 in gefitinib-insensitive human HCC827GR cells assessed as reduction in FGF-induced FGFR1 phosphorylation upto 10 uM measured after 2 hrs by western blot analysis
Target sequence in this assay (P11362 22-822 limits assumed): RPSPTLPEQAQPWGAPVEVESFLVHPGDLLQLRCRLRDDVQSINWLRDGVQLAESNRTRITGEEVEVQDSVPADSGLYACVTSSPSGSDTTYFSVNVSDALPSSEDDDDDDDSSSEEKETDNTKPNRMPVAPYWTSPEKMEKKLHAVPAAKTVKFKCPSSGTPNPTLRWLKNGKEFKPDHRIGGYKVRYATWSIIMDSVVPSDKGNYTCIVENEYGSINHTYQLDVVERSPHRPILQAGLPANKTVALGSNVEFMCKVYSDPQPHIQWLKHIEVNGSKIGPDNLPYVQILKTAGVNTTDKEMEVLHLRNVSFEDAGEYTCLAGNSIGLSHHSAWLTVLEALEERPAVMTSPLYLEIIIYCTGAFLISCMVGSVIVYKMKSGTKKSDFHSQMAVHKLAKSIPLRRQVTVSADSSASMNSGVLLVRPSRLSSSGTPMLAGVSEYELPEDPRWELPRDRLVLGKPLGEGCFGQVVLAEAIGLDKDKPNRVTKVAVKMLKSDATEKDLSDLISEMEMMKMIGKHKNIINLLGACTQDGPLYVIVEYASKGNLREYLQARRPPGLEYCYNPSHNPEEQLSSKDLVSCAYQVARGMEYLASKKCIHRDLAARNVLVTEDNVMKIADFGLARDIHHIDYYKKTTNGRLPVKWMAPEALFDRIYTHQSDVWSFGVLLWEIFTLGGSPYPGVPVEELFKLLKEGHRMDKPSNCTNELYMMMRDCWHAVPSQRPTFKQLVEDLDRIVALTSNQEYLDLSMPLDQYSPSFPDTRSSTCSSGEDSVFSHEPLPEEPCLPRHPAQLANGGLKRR

[6] = Induction of apoptosis in gefitinib-insensitive human HCC827GR cells assessed as early apoptotic cells at 2.5 uM measured after 24 hrs by Annexin-V/propidium iodide staining-based flow cytometric analysis (reference value: 1.9%); format: functional
[7] = Induction of apoptosis in gefitinib-insensitive human HCC827GR cells assessed as necrotic cells at 1 uM measured after 24 hrs by Annexin-V/propidium iodide staining-based flow cytometric analysis (reference value: 5.8%); format: functional
[8] = biological target: Vascular endothelial growth factor receptor 3 (Homo sapiens) (UniProt P35916); assay: Inhibition of N-terminal GST tagged human FLT4 cytoplasmic domain (798 to 1298 AA) expressed in baculovirus at 10 uM using FAM-labelled peptide as substrate pre-incubated for 10 mins followed by substrate addition by mobility shift assay relative to control
Vascular endothelial growth factor receptor 3 (Homo sapiens), sequence (P35916 whole entry, the tested form may be a part): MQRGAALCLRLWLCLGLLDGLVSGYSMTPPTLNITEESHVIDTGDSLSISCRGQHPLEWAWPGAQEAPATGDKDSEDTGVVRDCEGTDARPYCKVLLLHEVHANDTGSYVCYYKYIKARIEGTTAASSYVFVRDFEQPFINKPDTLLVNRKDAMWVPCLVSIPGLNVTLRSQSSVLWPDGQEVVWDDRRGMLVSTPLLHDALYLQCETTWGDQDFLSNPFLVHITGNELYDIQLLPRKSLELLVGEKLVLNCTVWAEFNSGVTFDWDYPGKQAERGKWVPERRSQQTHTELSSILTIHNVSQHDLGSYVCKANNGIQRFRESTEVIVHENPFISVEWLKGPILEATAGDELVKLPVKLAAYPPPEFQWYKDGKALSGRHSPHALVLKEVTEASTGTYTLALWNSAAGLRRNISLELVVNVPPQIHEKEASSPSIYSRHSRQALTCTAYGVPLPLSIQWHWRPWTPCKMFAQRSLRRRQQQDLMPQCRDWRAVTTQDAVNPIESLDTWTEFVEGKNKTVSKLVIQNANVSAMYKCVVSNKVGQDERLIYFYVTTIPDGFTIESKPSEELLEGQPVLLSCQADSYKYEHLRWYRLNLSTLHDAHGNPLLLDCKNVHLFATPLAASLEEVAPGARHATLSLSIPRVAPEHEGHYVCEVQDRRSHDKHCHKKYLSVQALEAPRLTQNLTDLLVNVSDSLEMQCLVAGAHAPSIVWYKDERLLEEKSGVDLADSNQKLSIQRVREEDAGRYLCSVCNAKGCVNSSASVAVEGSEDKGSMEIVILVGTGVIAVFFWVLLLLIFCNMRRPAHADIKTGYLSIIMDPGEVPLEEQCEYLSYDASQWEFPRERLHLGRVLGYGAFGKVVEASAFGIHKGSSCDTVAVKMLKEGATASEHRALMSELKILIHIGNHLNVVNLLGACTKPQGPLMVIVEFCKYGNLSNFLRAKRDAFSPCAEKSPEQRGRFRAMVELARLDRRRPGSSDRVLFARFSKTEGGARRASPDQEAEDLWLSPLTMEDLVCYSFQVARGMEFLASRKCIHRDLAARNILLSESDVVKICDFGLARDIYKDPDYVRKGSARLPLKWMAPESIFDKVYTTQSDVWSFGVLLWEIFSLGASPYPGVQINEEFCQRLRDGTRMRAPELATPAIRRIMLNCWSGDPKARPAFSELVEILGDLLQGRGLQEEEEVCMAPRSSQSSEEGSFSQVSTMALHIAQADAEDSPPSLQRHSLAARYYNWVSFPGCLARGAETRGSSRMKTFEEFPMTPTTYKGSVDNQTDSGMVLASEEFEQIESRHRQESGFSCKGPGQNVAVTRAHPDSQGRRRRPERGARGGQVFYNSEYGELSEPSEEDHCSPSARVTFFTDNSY

[9] = Induction of apoptosis in gefitinib-insensitive human HCC827GR cells assessed as viable cells at 1 uM measured after 24 hrs by Annexin-V/propidium iodide staining-based flow cytometric analysis (reference value: 90.8%); format: functional; settings: read-out: Activity
[10] = Toxicity in BALB/c nude mouse xenografted with human HCC827GR cells assessed as body weight at 15 mg/kg, ip dosed measured every 2 days upto 24 days; format: organism-based; settings: in vivo
[11] = tested on: NCI-H226; assay: Antiproliferative activity against human NCI-H226 cells assessed as inhibition of cell growth at 10 uM incubated for 48 hrs by MTT assay relative to control; format: functional; settings: NCI-H226, 48 h
[12] = Induction of apoptosis in gefitinib-insensitive human HCC827GR cells assessed as viable cells at 5 uM measured after 24 hrs by Annexin-V/propidium iodide staining-based flow cytometric analysis (reference value: 90.8%); format: functional; settings: read-out: Activity
[13] = biological target: CDK4/Cyclin D3 (Homo sapiens) (UniProt P11802+P30281); assay: Inhibition of N-terminal GST tagged truncated human CDK4 (1 to 303 AA) coexpressed with CyclinD3 (1 to 292 AA) in baculovirus at 10 uM using FAM-labelled peptide as substrate pre-incubated for 10 mins followed by substrate addition by mobility shift assay relative to control; format: protein-complex assay
[14] = tested on: NCI-H226; assay: Induction of apoptosis in human NCI-H226 cells assessed as viable cells at 10 uM measured after 24 hrs by Annexin-V/propidium iodide staining-based flow cytometric analysis (reference value: 93.4%); format: functional; settings: NCI-H226, 24 h, read-out: Activity
[15] = Induction of apoptosis in gefitinib-insensitive human HCC827GR cells assessed as early apoptotic cells at 10 uM measured after 24 hrs by Annexin-V/propidium iodide staining-based flow cytometric analysis (reference value: 1.9%); format: functional
[16] = tested on: NCI-H226; assay: Induction of cell cycle arrest in human NCI-H226 cells assessed as accumulation of cells at G1 measured after 24 hrs by flow cytometry; format: functional, cell-based
[17] = tested on: NCI-H226; assay: Induction of apoptosis in human NCI-H226 cells assessed as viable cells at 5 uM measured after 24 hrs by Annexin-V/propidium iodide staining-based flow cytometric analysis (reference value: 93.4%); format: functional; settings: NCI-H226, 24 h, read-out: Activity
[18] = MRT in Sprague-Dawley rat at 30 mg/kg, po measured upto 24 hrs by UPLC-MS/MS; format: ADME, organism-based; settings: in vivo
[19] = Induction of apoptosis in gefitinib-insensitive human HCC827GR cells assessed as late apoptotic cells at 5 uM measured after 24 hrs by Annexin-V/propidium iodide staining-based flow cytometric analysis (reference value: 1.5%); format: functional
[20] = Induction of apoptosis in gefitinib-insensitive human HCC827GR cells assessed as necrotic cells at 10 uM measured after 24 hrs by Annexin-V/propidium iodide staining-based flow cytometric analysis (reference value: 5.8%); format: functional
[21] = biological target: Mitogen-activated protein kinase 9 (Homo sapiens) (UniProt P45984); assay: Inhibition of human recombinant full length His-tagged JNK2 expressed in baculovirus expression system at 10 uM using FAM-labelled peptide as substrate pre-incubated for 10 mins followed by substrate addition by mobility shift assay relative to control
Mitogen-activated protein kinase 9 (Homo sapiens), sequence (P45984 whole entry, looked up): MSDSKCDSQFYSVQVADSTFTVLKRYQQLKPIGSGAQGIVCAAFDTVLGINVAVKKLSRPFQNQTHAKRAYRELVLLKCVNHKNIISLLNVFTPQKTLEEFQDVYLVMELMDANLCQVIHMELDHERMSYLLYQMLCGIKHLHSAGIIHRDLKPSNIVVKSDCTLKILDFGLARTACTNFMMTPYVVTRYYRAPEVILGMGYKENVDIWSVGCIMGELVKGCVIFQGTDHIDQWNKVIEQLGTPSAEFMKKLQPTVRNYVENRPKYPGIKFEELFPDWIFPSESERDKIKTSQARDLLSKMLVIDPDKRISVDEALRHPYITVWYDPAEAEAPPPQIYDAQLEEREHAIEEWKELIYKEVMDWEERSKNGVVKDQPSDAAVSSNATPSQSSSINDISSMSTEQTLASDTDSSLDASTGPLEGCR

[22] = biological target: Cyclin-dependent kinase 1/cyclin B1 (Homo sapiens) (UniProt P06493+P14635); assay: Inhibition of CDC2/cyclinB1 (unknown origin) at 10 uM using FAM-labelled peptide as substrate pre-incubated for 10 mins followed by substrate addition by mobility shift assay relative to control; format: protein-complex assay
[23] = tested on: NCI-H226; assay: Induction of apoptosis in human NCI-H226 cells assessed as early apoptotic cells at 1 uM measured after 24 hrs by Annexin-V/propidium iodide staining-based flow cytometric analysis (reference value: 0.8%); format: functional
[24] = biological target: RAC-beta serine/threonine-protein kinase (Homo sapiens) (UniProt P31751); assay: Inhibition of N-terminal GST tagged human AKT2 catalytic domain (120 to 481 AA) expressed in baculovirus at 10 uM using FAM-labelled peptide as substrate pre-incubated for 10 mins followed by substrate addition by mobility shift assay relative to control
[25] = biological target: Hepatocyte growth factor receptor (Homo sapiens) (UniProt P08581); assay: Inhibition of N-terminal GST-tagged human MET cytoplasmic domain (956 to 1360 AA) expressed in baculovirus at 10 uM using FAM-labelled peptide as substrate pre-incubated for 10 mins followed by substrate addition by mobility shift assay relative to control
Hepatocyte growth factor receptor (Homo sapiens), sequence (P08581 whole entry, the tested form may be a part): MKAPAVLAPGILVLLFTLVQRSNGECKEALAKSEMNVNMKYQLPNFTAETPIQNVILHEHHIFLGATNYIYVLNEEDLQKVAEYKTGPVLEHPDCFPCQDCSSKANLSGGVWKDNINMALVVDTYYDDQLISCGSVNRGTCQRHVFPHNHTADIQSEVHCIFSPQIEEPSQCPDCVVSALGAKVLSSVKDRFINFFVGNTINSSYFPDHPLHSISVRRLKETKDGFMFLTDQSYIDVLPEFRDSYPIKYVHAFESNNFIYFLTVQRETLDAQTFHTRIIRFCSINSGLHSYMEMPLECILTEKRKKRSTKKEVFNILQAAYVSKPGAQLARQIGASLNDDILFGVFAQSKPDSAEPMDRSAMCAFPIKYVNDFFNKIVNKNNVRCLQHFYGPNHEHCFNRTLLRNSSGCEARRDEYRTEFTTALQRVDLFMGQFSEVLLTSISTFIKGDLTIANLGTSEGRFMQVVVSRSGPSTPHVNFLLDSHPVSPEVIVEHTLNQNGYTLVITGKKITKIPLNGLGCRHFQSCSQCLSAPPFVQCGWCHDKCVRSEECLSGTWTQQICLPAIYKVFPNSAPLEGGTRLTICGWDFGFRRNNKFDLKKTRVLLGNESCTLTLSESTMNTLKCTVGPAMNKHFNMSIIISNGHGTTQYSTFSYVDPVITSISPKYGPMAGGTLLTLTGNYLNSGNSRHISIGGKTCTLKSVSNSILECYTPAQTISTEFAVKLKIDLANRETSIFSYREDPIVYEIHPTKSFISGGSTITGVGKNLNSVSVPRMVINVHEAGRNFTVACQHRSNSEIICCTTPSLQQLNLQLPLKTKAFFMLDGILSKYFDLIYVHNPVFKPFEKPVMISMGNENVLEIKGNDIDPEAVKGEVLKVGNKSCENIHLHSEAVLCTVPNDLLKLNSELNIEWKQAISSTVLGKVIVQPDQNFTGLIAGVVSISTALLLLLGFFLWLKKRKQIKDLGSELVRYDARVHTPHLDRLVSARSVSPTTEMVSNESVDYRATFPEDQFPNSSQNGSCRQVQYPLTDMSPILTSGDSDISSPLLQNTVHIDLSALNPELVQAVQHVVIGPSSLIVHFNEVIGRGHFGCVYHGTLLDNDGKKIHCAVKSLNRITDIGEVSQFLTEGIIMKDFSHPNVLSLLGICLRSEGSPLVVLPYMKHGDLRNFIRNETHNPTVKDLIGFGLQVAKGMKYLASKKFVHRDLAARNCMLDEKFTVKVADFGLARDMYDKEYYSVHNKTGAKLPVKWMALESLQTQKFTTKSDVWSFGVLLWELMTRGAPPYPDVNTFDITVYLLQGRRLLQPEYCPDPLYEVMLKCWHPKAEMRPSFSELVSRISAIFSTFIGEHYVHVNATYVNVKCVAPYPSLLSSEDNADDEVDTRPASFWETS

[26] = Induction of apoptosis in gefitinib-insensitive human HCC827GR cells assessed as necrotic cells at 2.5 uM measured after 24 hrs by Annexin-V/propidium iodide staining-based flow cytometric analysis (reference value: 5.8%); format: functional
[27] = tested on: NCI-H226; assay: Induction of apoptosis in human NCI-H226 cells assessed as late apoptotic cells at 10 uM measured after 24 hrs by Annexin-V/propidium iodide staining-based flow cytometric analysis (reference value: 2.8%); format: functional
[28] = tested on: NCI-H226; assay: Induction of apoptosis in human NCI-H226 cells assessed as early apoptotic cells at 10 uM measured after 24 hrs by Annexin-V/propidium iodide staining-based flow cytometric analysis (reference value: 0.8%); format: functional
[29] = biological target: Inhibitor of nuclear factor kappa-B kinase subunit beta (Homo sapiens) (UniProt O14920); assay: Inhibition of N-terminal GST tagged truncated human IKKbeta (1 to 662 AA) expressed in baculovirus at 10 uM using FAM-labelled peptide as substrate pre-incubated for 10 mins followed by substrate addition by mobility shift assay relative to control

## COc1ccc(OC)c(Nc2cc(NC(=O)Nc3c(Cl)cccc3Cl)ncn2)c1
[1]
  Cmax: 1270 ng/mL
[2]
  inhibition: Active
[3]
  inhibition: Dose-dependent effect
[4]
  IC50: 0.808 µM
[5]
  inhibition: Active
[6]
  Activity: 2.5%
[7]
  Activity: 3.6%
[8]
  inhibition: 43.6%
[9]
  viability at 1 µM: 79.5%
[10]
  Activity: Non-Toxic
[11]
  inhibition at 10 µM: 81.7%
[12]
  viability at 5 µM: 68.9%
[13]
  inhibition: 12.5%
[14]
  viability at 10 µM: 71.9%
[15]
  Activity: 13%
[16]
  Activity: Active
[17]
  viability at 5 µM: 79.6%
[18]
  MRT: 6.73 h
[19]
  Activity: 25.3%
[20]
  Activity: 5.4%
[21]
  inhibition: 0.85%
[22]
  inhibition: -9.78%
[23]
  Activity: 3%
[24]
  inhibition: 12.7%
[25]
  inhibition: -0.39%
[26]
  Activity: 4.5%
[27]
  Activity: 11.9%
[28]
  Activity: 4.4%
[29]
  inhibition: -0.73%
